Measurements: EP0966972B1, “Topical composition containing silicon gum” (Dow Corning France S.A., priority 1998, dated 1999)

Assay: Substantivity of silicone gum formulation on skin (FT-IR/ATR)
Type: in vivo, human
Details: 10 seconds after spraying
Method: The forearms of volunteers were cleaned and then sprayed in several areas with the formulation of Example 4. […] A FT-IR/ATR cell was used to take an IR spectrum at each area sprayed. […] An IR of the cleansed forearm skin was used as a control blank. The percentage of silicone remaining on the skin was calculated by comparing the height of the specific silicon peak height (1255 cm^-1)/ specific skin peak height (1538 cm^-1) in the blank test.

With `C[Si](C)(C)O[Si](C)(C)C` [HMDS, hexamethyldisiloxane] the “detectability on the skin” value was “not detectable”.
